We go through one sequence from US20100172925A1, “HLA-A2-RESTRICTED T-CELL EPITOPES OF THE RESPIRATORY SYNCYTIAL VIRUS FUSION PROTEIN AS PEPTIDE-BASED VACCINES” (priority 2009, published 2010).

This assay relates to peptide-loaded T2 cells. The assay is described as follows: Cytotoxicity (CTL) assay, CFSE/7-AAD, splenocytes of peptide-immunized mice against peptide-loaded T2 cells. It is filed as in vivo, mouse. Particulars: E:T ratio of 100:1; IFA vehicle background 6.5%. The procedure:
A non-radioactive assay of cell-mediated cytotoxicity was performed using green fluorescent probes 5-(6)-carboxyfluorescein diacetate succinimidyl ester (CFSE) to label target cells in combination with 7-amino-actinomycin D (7AAD), a red fluorescent probe to label dead effector and dead target cells. The assay was used to assess the presence of the RSV F protein-specific CTLs in the spleens or lungs of the immunized animals [Russell et al. (2002) “Lymphocyte-mediated cytotoxicity” Annu Rev Immunol 20:323-70]. The assay protocol was in accordance with the manufacturer's instructions (Cayman Chemical, Michigan, USA). […]
The CFSE-labeled target cells were resuspended in the culture medium and incubated at 37° C. of CO2 incubator for 30 minutes. […] The CFSE positive cells were measured in the FL1 channel and 7-AAD stained cells were measured in the FL3 channel. The percentage of CFSE/7-AAD double positive target cells (i.e., T2 cell death) was analyzed.
It has been reported that in primary RSV infection of BALB/c mice, CTLs generated against the F, matrix 2 (M2) and N viral proteins play a protective role in virus clearance. […] A mean background percentage of the killed target cells co-cultured with the control splenocytes isolated from the mouse previously immunized with the vehicle IFA was scored (6.5% at the E:T ratio of 100:1). […]

With “KVLDLKNYI (F214-222) [compound 13, 9-mer synthetic peptide from the F protein of RSV-B1 strain]”, the “percentage of killed target cells (CFSE and 7-AAD double positive T2 cells), CTL response” value is given as 15.4%.
